Measurements from ChEMBL document CHEMBL1201862, “PubChem BioAssay data set” (2004).
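Test compounds were applied to cells in 96-well plates for 48 hours at 5 doses. Here, GI50 denotes the concentration required for 50% inhibition of growth.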 Active and inactive are the calls of the source. Rule as the data show it: active = GI50 up to about 1.1 µM and inactive = higher.

Experiments:
Experiment in all cases: DTP human tumour cell line panel, 48 h
[1] = test system: A549
[2] = test system: OVCAR-5
[3] = test system: SK-MEL-2
[4] = test system: SNB-75
[5] = test system: UACC-257
[6] = test system: OVCAR-4
[7] = test system: SF-295
[8] = test system: EKVX
[9] = test system: NCI-H522
[10] = test system: M14
[11] = test system: NCI-H226
[12] = test system: UACC-62
[13] = test system: RXF 393
[14] = test system: UO-31
[15] = test system: SK-OV-3
[16] = test system: MDA-MB-435
[17] = test system: HOP-92
[18] = test system: HT-29
[19] = test system: SK-MEL-28
[20] = test system: OVCAR-3

Structure (SMILES)	GI50 [1]	GI50 [2]	GI50 [3]	GI50 [4]	GI50 [5]	GI50 [6]	GI50 [7]	GI50 [8]	GI50 [9]	GI50 [10]	GI50 [11]	GI50 [12]	GI50 [13]	GI50 [14]	GI50 [15]	GI50 [16]	GI50 [17]	GI50 [18]	GI50 [19]	GI50 [20]
NNC(=O)c1cc(=O)[nH][nH]1	> 100 µM (inactive)	> 100 µM (inactive)	> 100 µM (inactive)	> 100 µM (inactive)	> 100 µM (inactive)	> 100 µM (inactive)	> 100 µM (inactive)	> 100 µM (inactive)	> 100 µM (inactive)	> 100 µM (inactive)	> 100 µM (inactive)	> 100 µM (inactive)	> 100 µM (inactive)	> 100 µM (inactive)	> 100 µM (inactive)	> 100 µM (inactive)	> 100 µM (inactive)	> 100 µM (inactive)		
COc1cc(NCc2ccc3nc(-c4ccccc4)c(N)nc3c2)cc(OC)c1OC	30.8 µM (inactive)	> 100 µM (inactive)	31 µM (inactive)	19.1 µM (inactive)	22.7 µM (inactive)	29.3 µM (inactive)	35.6 µM (inactive)	33.2 µM (inactive)	23.7 µM (inactive)	18.4 µM (inactive)	27.5 µM (inactive)	29.4 µM (inactive)	16 µM (inactive)	29.2 µM (inactive)	42.3 µM (inactive)	22.3 µM (inactive)	12.5 µM (inactive)	32.9 µM (inactive)	27.4 µM (inactive)	25.6 µM (inactive)
O=C(CSc1nc2ccccc2c(=O)n1-c1ccccc1)N/N=C1\C(=O)Nc2ccc(Br)cc21	2.3 µM (inactive)	2.92 µM (inactive)	9.53 µM (inactive)	3.01 µM (inactive)	5.94 µM (inactive)	2.58 µM (inactive)	2.81 µM (inactive)	2.74 µM (inactive)	3.4 µM (inactive)	2.4 µM (inactive)	12.1 µM (inactive)	4.44 µM (inactive)	2.62 µM (inactive)	2.28 µM (inactive)	3.41 µM (inactive)	5.71 µM (inactive)	2.7 µM (inactive)	1.69 µM (inactive)	3.35 µM (inactive)	3.1 µM (inactive)
Cc1ccc(NC(=O)c2cccc(OP(=O)(O)Nc3ccc(C)cc3)c2)cc1	71.8 µM (inactive)	> 100 µM (inactive)	> 100 µM (inactive)	20.2 µM (inactive)	> 100 µM (inactive)	72.8 µM (inactive)	> 100 µM (inactive)	> 100 µM (inactive)	18.7 µM (inactive)	33.3 µM (inactive)	> 100 µM (inactive)	> 100 µM (inactive)	> 100 µM (inactive)	88.1 µM (inactive)	> 100 µM (inactive)	> 100 µM (inactive)	37.2 µM (inactive)	> 100 µM (inactive)	> 100 µM (inactive)	> 100 µM (inactive)
C=C1C(=O)O[C@@H]2C(=O)[C@@H](C)[C@@H]3C=CC(=O)[C@@]3(C)[C@@H](OC(=O)/C(C)=C\C)[C@H]12 [MULTISTATIN]	10.6 µM (inactive)	2.22 µM (inactive)	2.86 µM (inactive)	5.53 µM (inactive)	1.47 µM (inactive)	5.04 µM (inactive)	13 µM (inactive)	1.1 µM (active)	0.0883 µM (active)	1.56 µM (inactive)	2.38 µM (inactive)	1.25 µM (inactive)	0.378 µM (active)	1.21 µM (inactive)	13.1 µM (inactive)	1.29 µM (inactive)	0.393 µM (active)	0.371 µM (active)	0.278 µM (active)	0.653 µM (active)
Cc1ccccc1/N=N/c1c(O)ccc2ccccc12	69.3 µM (inactive)	> 100 µM (inactive)	> 100 µM (inactive)	> 100 µM (inactive)	> 100 µM (inactive)	70.5 µM (inactive)	77.1 µM (inactive)	47.6 µM (inactive)	> 100 µM (inactive)	> 100 µM (inactive)	> 100 µM (inactive)	> 100 µM (inactive)	> 100 µM (inactive)	> 100 µM (inactive)	> 100 µM (inactive)	> 100 µM (inactive)	> 100 µM (inactive)	> 100 µM (inactive)	> 100 µM (inactive)	> 100 µM (inactive)
CN(CCO)CC(=O)CC(O)(C(F)(F)F)C(F)(F)F	30.4 µM (inactive)	52.5 µM (inactive)	33 µM (inactive)	14.5 µM (inactive)	37.6 µM (inactive)	50 µM (inactive)	30 µM (inactive)	31.2 µM (inactive)	40.2 µM (inactive)	32.5 µM (inactive)	36.3 µM (inactive)	35.6 µM (inactive)	19.5 µM (inactive)	39.1 µM (inactive)	26.4 µM (inactive)	36 µM (inactive)	22.5 µM (inactive)	30.7 µM (inactive)	42.6 µM (inactive)	26.5 µM (inactive)
Cn1nc2ccc(Nc3cc(=O)[nH]c4ccc5nn(C)nc5c34)cc2n1	> 100 µM (inactive)	> 100 µM (inactive)	> 100 µM (inactive)	> 100 µM (inactive)	> 100 µM (inactive)	> 100 µM (inactive)	> 100 µM (inactive)	> 100 µM (inactive)	65.6 µM (inactive)	> 100 µM (inactive)	> 100 µM (inactive)	> 100 µM (inactive)	> 100 µM (inactive)	> 100 µM (inactive)	> 100 µM (inactive)	> 100 µM (inactive)	> 100 µM (inactive)	> 100 µM (inactive)	> 100 µM (inactive)	> 100 µM (inactive)
O=C(c1ccccc1)c1ccc2[nH]c(-c3c(Cl)c(Cl)c(Cl)c(Cl)c3C(=O)Nc3ccco3)nc2c1	26.5 µM (inactive)	> 100 µM (inactive)	20.9 µM (inactive)	> 100 µM (inactive)	45.7 µM (inactive)	42.3 µM (inactive)	23.6 µM (inactive)	67 µM (inactive)	25.7 µM (inactive)	36.7 µM (inactive)	54.2 µM (inactive)	49.5 µM (inactive)	41.8 µM (inactive)	51.5 µM (inactive)	> 100 µM (inactive)	12.6 µM (inactive)	40.5 µM (inactive)	28.4 µM (inactive)	81.1 µM (inactive)	49.4 µM (inactive)
O=C(N/N=C/c1ccco1)c1cc(I)cc(I)c1O	31.9 µM (inactive)	7.85 µM (inactive)	5.22 µM (inactive)	37.2 µM (inactive)		35.8 µM (inactive)		12.4 µM (inactive)	27.2 µM (inactive)	8.24 µM (inactive)	11.4 µM (inactive)	16.6 µM (inactive)	20.7 µM (inactive)	24 µM (inactive)		16.9 µM (inactive)	15.6 µM (inactive)	6.41 µM (inactive)	28.2 µM (inactive)	
CCOC(=O)n1c(=O)nc2c3c(ncn21)Oc1c(c(-c2ccccc2)nn1-c1ccccc1)C3c1ccc(Cl)cc1 (stereo not given)	1.65 µM (inactive)	2.1 µM (inactive)	1.84 µM (inactive)	1.91 µM (inactive)	1.8 µM (inactive)	1.15 µM (inactive)	1.86 µM (inactive)		1.73 µM (inactive)	1.92 µM (inactive)	1.63 µM (inactive)	1.7 µM (inactive)	1.57 µM (inactive)	1.49 µM (inactive)	2.86 µM (inactive)	1.67 µM (inactive)	1.36 µM (inactive)	1.75 µM (inactive)	1.79 µM (inactive)	1.48 µM (inactive)
Cn1cnc(C(N)=[Se])c1N	1.71 µM (inactive)	3.56 µM (inactive)	2.27 µM (inactive)	2.2 µM (inactive)	7.24 µM (inactive)		0.244 µM (active)	2.05 µM (inactive)	2.19 µM (inactive)	4.44 µM (inactive)	3.11 µM (inactive)	2 µM (inactive)	1.6 µM (inactive)	2.07 µM (inactive)	1.25 µM (inactive)	5.26 µM (inactive)	6.56 µM (inactive)	5.35 µM (inactive)	3.39 µM (inactive)	2.03 µM (inactive)
C[N+](C)(C)CC1CCCc2ccccc2C1=O (stereo not given)	4.06 µM (inactive)	13.3 µM (inactive)	10.5 µM (inactive)	19.7 µM (inactive)	13.7 µM (inactive)	6.92 µM (inactive)	> 40.5 µM (inactive)	6.46 µM (inactive)	1.49 µM (inactive)	4.52 µM (inactive)	21.9 µM (inactive)	12.2 µM (inactive)	6.28 µM (inactive)	16.9 µM (inactive)	20.3 µM (inactive)	5.89 µM (inactive)	13.2 µM (inactive)		18.2 µM (inactive)	7.26 µM (inactive)
CCN(CC)C(=S)N/N=C(/c1ccccc1)c1ccccn1	0.349 µM (active)	0.238 µM (active)	0.711 µM (active)	0.875 µM (active)	0.107 µM (active)	0.504 µM (active)	0.342 µM (active)	0.583 µM (active)	0.0984 µM (active)	0.0618 µM (active)	1.66 µM (inactive)		0.277 µM (active)	0.459 µM (active)	0.673 µM (active)	0.705 µM (active)	1.65 µM (inactive)	< 0.0246 µM (active)	0.767 µM (active)	0.0288 µM (active)
